According to patent publication US20230310445A1, “LOX ENZYME INHIBITING METHODS AND COMPOSITIONS” (ANOVIA BIOSCIENCES, INC., priority 2020, published 2023):

Legend:
[1] = biological target: T1, Bovine lysyl oxidase (LOX) (Bos taurus, UniProt P33072); assay: LOX inhibition assay (fluorometric, cadaverine/Amplex Red/HRP); type: biochemical; conditions: IC50 class; bovine tendon LOX, cadaverine substrate; read-out: Activity Range LOX
T1 construct: from tissue; host or cells: adult bovine tendon
T1 sequence (P33072 170-418): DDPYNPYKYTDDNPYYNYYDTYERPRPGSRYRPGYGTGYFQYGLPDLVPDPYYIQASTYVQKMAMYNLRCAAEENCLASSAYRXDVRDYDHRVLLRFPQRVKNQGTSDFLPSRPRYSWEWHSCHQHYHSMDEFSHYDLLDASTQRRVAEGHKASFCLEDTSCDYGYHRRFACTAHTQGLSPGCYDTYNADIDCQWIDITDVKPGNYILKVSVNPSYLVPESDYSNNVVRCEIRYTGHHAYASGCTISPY
Description: (§1) The ability of compounds to inhibit prototypic LOX was determined using a fluorometric assay. This assay measures the activity of lysyl oxidases by coupling the reaction with horseradish peroxidase-catalyzed […]. The activity assay protocol uses cadaverine as substrate that releases hydrogen peroxide upon transformation by prototypic LOX enzyme present in the sample. Hydrogen peroxide is in turn detected using a red fluorescence substrate for HRP-coupled reactions (Amplex Red Enzyme Assays, Thermo Scientific Fisher). This leads to increase in fluorescence that can be easily detected at Ex/Em=540/590 nm in a fluorescence microplate reader.
Enzyme: Bovine lysyl oxidase (LOX) was extracted by adapting the methodology from [Kagan et al. 1979 and Borel et al. 2001.] from bovine tendon: Frozen adult bovine tendon was placed in room temperature water to defrost, and then membranes were removed and the remaining tissue cut into 1 cm pieces. The material was first passed through a course mesh meat grinder, and this mince was passed through a fine mesh grinder. The mince was homogenized in 10 v/w of buffer (16 mM sodium phosphate buffer pH 7.8, 400 mM NaCl) using a Waring blender. The homogenate was centrifuged at 15,000×g for 15 min at 4° C. After centrifugation, the supernatant was discarded and the pellets resuspended in 10 volumes of the same buffer. The mixture was blended again and centrifuged with the same settings. This time the pellets were blended in 3 volumes of extraction buffer (16 mM sodium phosphate buffer pH 7.8) and left to incubate at 4° C. for 2 h. After this time, the slurry was centrifuged with the same settings as described above. The supernatant was used in an ultrafiltration step to remove large proteins by size exclusion through a 30 kDalton filter (EMD Millipore). The filtrate was mixed with DEAE Sephadex (GE Healthcare), or passed over a MonoQ FPLC column. After two washes, one in 16 mM sodium phosphate buffer pH 7.8, 380 mM NaCl, and another in 16 mM sodium phosphate buffer pH 7.8, the proteins were eluted with 16 mM sodium phosphate pH 7.8, 10 μM CuSO4, and 4 M urea. Fractions containing Lox activity were collected and stored frozen at −70° C.
Reaction: Final concentration in the LOX assay was as following and performed in a total volume of […]:
Experimental procedure: 7 μl of freshly prepared reaction buffer were delivered to reaction wells. Compounds were resuspended in 100% DMSO at 10 mM and delivered into buffer using acoustic technology (Echo550; nanoliter range). A 2.85× solution of LOX protein in reaction buffer was prepared (“LOX solution”) and 7 μl of LOX solution was added into the reaction wells. Buffer only was added to column 1 for no protein control. Reactions were incubated for 30 minutes at 37° C. A 3.33× mixture of cadaverine, Amplex Red, and HRP (“Substrate/Detection Mix) was prepared and subsequently 6 μL of the mixture was added to each reaction well. Progress of reactions was monitored for 120 minutes at 37° C. using Clariostar plate reader (ex530-12, ems 600-40). For all activity assays, pan-LOX inhibitor CCT365623 (Tang et al, 2017) and LOXL2/LOXL3 inhibitor PAT-1251 (PharmaKea) were included as standards.
Data analysis: Slope of the linear portion of the progress curve was calculated using Clariostar software. Typical analysis interval was between 20-50 min, but varied between experiments. The background subtracted signals (No protein wells were considered as background) were converted to % activity relative to DMSO controls. Data was analyzed using GraphPad Prism 4 with “sigmoidal dose-response (variable slope)”; 4 parameters with Hill Slope. Constraints: Bottom=Constant equal to 0. Top=Must be less than 120.

[2] = biological target: T2, Recombinant human LOXL2 (lysyl oxidase like 2) (Homo sapiens, UniProt Q9Y4K0); assay: LOXL2 inhibition assay (fluorometric, cadaverine/Amplex Red/HRP); type: biochemical; conditions: IC50 class; recombinant human LOXL2, cadaverine substrate; read-out: Activity Range LOXL2
T2 construct: purchased R&D systems
T2 sequence (Q9Y4K0 26-774): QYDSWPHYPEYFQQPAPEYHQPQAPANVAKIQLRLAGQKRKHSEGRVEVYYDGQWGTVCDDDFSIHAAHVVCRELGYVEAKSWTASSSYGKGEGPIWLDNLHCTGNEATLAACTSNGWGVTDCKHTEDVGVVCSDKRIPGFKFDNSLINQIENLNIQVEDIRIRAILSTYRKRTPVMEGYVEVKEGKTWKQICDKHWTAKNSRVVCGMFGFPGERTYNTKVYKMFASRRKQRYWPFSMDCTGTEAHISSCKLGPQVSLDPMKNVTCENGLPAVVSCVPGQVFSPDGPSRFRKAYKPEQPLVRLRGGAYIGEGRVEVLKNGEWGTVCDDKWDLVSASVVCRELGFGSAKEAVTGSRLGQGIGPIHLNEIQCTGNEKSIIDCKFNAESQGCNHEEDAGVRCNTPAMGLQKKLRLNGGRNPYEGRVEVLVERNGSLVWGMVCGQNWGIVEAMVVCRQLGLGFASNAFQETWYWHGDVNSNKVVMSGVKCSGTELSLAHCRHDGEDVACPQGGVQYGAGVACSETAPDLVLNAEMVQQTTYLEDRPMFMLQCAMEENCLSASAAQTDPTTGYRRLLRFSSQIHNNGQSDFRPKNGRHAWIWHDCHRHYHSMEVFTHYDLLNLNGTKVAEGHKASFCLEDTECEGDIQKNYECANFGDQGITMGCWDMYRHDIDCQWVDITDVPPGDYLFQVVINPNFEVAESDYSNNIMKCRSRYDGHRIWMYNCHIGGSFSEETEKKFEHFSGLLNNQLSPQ
Description: as §1, with “inhibit one or more of the lysyl oxidases LOXL2 and/or LOXL3” for “inhibit prototypic LOX”, “by the specific” for “by prototypic”, “LOX family” for “LOX”
Enzymes: Recombinant human LOXL2 (lysyl oxidase like 2) and recombinant human LOXL3 (lysyl oxidase like 3) were purchased from R&D systems and assays were performed in 1.2 M urea, 50 mM sodium borate buffer pH 8.0, and 10 mM CaCl.
Reaction: Final concentration in the LOXL2 and LOXL3 assays were as following and performed in a total volume of […]:
Experimental procedure: 5 μl of freshly prepared reaction buffer were delivered to reaction wells. Compounds were resuspended in 100% DMSO at 10 mM and delivered into buffer using acoustic technology (Echo550; nanoliter range). A 3× solution of LOXL2 or LOXL3 in reaction buffer was prepared (“enzyme solution”) and 5 μL of enzyme solution was added into the reaction wells. Buffer only was added to column 1 for no protein control. Reactions were incubated for 30 minutes at 37° C. A 3×mixture of cadaverine, Amplex Red, and HRP (“Substrate/Detection Mix) was prepared and subsequently 5 μL of the mixture added to each reaction well. Progress of reactions was monitored for 60 minutes at 37° C. using Clariostar plate reader (ex 530-12, ems 600-40). For all activity assays, pan-LOX inhibitor CCT365623 (Tang et al, 2017) and LOXL2/LOXL3 inhibitor PAT-1251 (PharmaKea) were included as standards.
Data analysis: Slope of the linear portion of the progress curve was calculated using Clariostar software. Typical analysis interval was between 8-30 min, but varied between experiments. The background subtracted signals (No protein wells are considered as background) were converted to % activity relative to DMSO controls. Data was analyzed using GraphPad Prism 4 with “sigmoidal dose-response (variable slope)”; 4 parameters with Hill Slope. Constraints: Bottom=Constant equal to 0. Top=Must be less than 120.

IC50 [1] [nM]	IC50 [2] [nM]	SMILES
> 30000	500 to 1000	CS(=O)(=O)N1C[C@H](Oc2cc(CN)ccc2F)C[C@H](c2ccccc2F)C1 (racemic) [Example 71, cis-(4-Fluoro-3-((-5-(2-fluorophenyl)-1-(methylsulfonyl)piperidin-3-yl)oxy)phenyl)methanamine 2,2,2-trifluoroacetate]
> 30000	1000 to 30000	NCc1cccc(O[C@@H]2C[C@H](c3ccccc3)CN(C(=O)N3CCOCC3)C2)c1 (racemic) [Example 72]
> 30000	1000 to 30000	NCc1cccc(O[C@@H]2C[C@H](c3ccccc3)CN(C(=O)N3CCS(=O)(=O)CC3)C2)c1 (racemic) [Example 73, cis-(3-(3-(Aminomethyl)phenoxy)-5-phenylpiperidin-1-yl)(1,1-dioxidothiomorpholino)methanone]
≤ 500	≤ 500	NCc1ccc(S(=O)(=O)N2C[C@@H](C(=O)N3CCS(=O)(=O)CC3)C[C@@H](c3ccccc3)C2)s1 (racemic) [Example 75, cis-(1-((5-(Aminomethyl)thiophen-2-yl)sulfonyl)-5-phenylpiperidin-3-yl)(1,1-dioxidothiomorpholino)methanone 2,2,2-trifluoroacetate]
≤ 500	≤ 500	CS(=O)(=O)N1CCN(C(=O)[C@H]2C[C@@H](c3ccccc3)CN(S(=O)(=O)c3ccc(CN)s3)C2)CC1 (racemic) [Example 76]
> 30000	1000 to 30000	NCc1cccc(S(=O)(=O)N2C[C@@H](C(=O)N3CCS(=O)(=O)CC3)C[C@@H](c3ccccc3)C2)c1 (racemic) [Example 77]
> 30000	500 to 1000	CS(=O)(=O)N1CCN(C(=O)[C@H]2C[C@@H](c3ccccc3)CN(S(=O)(=O)c3cccc(CN)c3)C2)CC1 (racemic) [Example 78, cis-(1-((3-(Aminomethyl)phenyl)sulfonyl)-5-phenylpiperidin-3-yl)(4-(methylsulfonyl)piperazin-1-yl)methanone 2,2,2-trifluoroacetate]
> 30000	1000 to 30000	NCc1cccc(O[C@H]2C[C@H](c3ccccc3)CN(C(=O)N3CCS(=O)(=O)CC3)C2)c1 (racemic) [Example 82, trans-(3-(3-(Aminomethyl)phenoxy)-5-phenylpiperidin-1-yl)(1,1-dioxidothiomorpholino)methanone]
1000 to 30000	≤ 500	CS(=O)(=O)N1CCN(C(=O)[C@@H]2C[C@@H](c3ccccc3)CN(S(=O)(=O)c3cccc(CN)c3)C2)CC1 (racemic) [Example 84, trans-(1-((3-(Aminomethyl)phenyl)sulfonyl)-5-phenylpiperidin-3-yl)(4-(methylsulfonyl)piperazin-1-yl)methanone 2,2,2-trifluoroacetate]
> 30000	500 to 1000	CS(=O)(=O)N1C[C@@H](Oc2cc(CN)ccc2F)C[C@H](c2ccccc2)C1 (racemic) [Example 90, trans-(4-Fluoro-3-((-1-(methylsulfonyl)-5-phenylpiperidin-3-yl)oxy)phenyl)Methanamine 2,2,2-trifluoroacetate]
> 30000	≤ 500	CS(=O)(=O)N1C[C@@H](Oc2cc(CN)ccc2F)C[C@H](c2ccccc2F)C1 (racemic) [Example 93, trans-(4-Fluoro-3-((-5-(2-fluorophenyl)-1-(methylsulfonyl)piperidin-3-yl)oxy)phenyl)methanamine 2,2,2-trifluoroacetate]
> 30000	500 to 1000	CN(C)C(=O)N1C[C@@H](c2ccccc2)C[C@H](S(=O)(=O)c2cccc(CN)c2)C1 (racemic) [Example 94, trans-3-((3-(Aminomethyl)phenyl)sulfonyl)-N,N-dimethyl-5-phenylpiperidine-1-carboxamide 2,2,2-trifluoroacetate]
> 30000	1000 to 30000	NCc1cccc(S(=O)(=O)N2C[C@@H](C(=O)N3CCS(=O)(=O)CC3)C[C@@H](C(F)(F)F)C2)c1 (racemic) [Example 99, cis-(1-((3-(Aminomethyl)phenyl)sulfonyl)-5-(trifluoromethyl)piperidin-3-yl)(1,1-dioxidothiomorpholino)methanone 2,2,2-trifluoroacetate]
> 30000	> 30000	CC(N)c1cccc(S(=O)(=O)N2C[C@@H](C(=O)N3CCOCC3)C[C@@H](c3ccccc3)C2)c1 (mixture of isomers) [Example 102RAC, cis-(1-((3-(1-Aminoethyl)phenyl)sulfonyl)-5-phenylpiperidin-3-yl)(morpholino)methanone 2,2,2-trifluoroacetate]
